The experiment addresses T1, hM5 (Homo sapiens, UniProt P08912).
T1 construct: expressed in transfected cells
T1 sequence (P08912 1-532): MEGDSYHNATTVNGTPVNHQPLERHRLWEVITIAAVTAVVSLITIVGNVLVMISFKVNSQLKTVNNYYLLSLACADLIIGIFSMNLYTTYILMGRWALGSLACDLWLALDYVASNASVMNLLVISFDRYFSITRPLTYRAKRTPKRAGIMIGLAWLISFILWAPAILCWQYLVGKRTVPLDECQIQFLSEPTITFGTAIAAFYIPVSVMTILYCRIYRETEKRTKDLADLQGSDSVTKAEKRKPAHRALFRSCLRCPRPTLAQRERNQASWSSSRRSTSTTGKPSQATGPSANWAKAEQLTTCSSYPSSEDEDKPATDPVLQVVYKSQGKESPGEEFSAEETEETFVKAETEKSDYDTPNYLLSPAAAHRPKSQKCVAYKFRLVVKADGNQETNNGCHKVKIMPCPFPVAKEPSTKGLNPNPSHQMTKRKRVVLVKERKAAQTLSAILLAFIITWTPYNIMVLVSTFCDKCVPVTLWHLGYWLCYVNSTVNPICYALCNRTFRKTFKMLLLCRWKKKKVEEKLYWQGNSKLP
Briefly: Calcium mobilization concentration-response (IC50 vs EC80 acetylcholine), CHO hM5. It counts as cell-based. The conditions noted are these: CELL LINE hM5, read-out: IC50. An outline of the steps:
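IC50 values derive from percent maximal acetylcholine response after an EC80 ACh addition, measured as kinetic calcium fluorescence (static ratio, max−min). Test compounds were added 140 s before agonist. Cells: stable hM5-CHO in HEPES-buffered HBSS with 2.5 mM probenecid, pH 7.4; ≥3 independent triplicate determinations.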
(In general: Calcium assays in cells follow changes in intracellular calcium, usually with a dye or a luminescent sensor.)

Where [1] appears, read: calcium mobilization, EC80 acetylcholine addition.

Where two headings read alike, the source gives them in different places.

In general, IC50 refers to the midpoint of a concentration-inhibition curve. On to `O=S(=O)(c1ccc2ncsc2c1)N1CCC(c2cc3[nH]ncc3cn2)CC1` [Compound 19, 6-((4-(1H-pyrazolo[4,3-c]pyridin-6-yl)piperidin-1-yl)sulfonyl)benzo[d]thiazole], for which the IC50 under setting [1] was above 10000 nM.
Take `Cc1ncc(S(=O)(=O)N2CCC(c3cn4ncnc4cc3F)CC2)o1` [Compound 507, 5-((4-(7-fluoro-[1,2,4]triazolo[1,5-a]pyridin-6-yl)piperidin-1-yl)sulfonyl)-2-methyloxazole]: the IC50 (vs EC80 acetylcholine) worked out at 3070 nM.
In the case of `Cc1cc2ncnn2nc1C1CCN(S(=O)(=O)c2cnn(C)c2C(F)(F)F)CC1` [Compound 177, 7-methyl-6-(1-((1-methyl-5-(trifluoromethyl)-1H-pyrazol-4-yl)sulfonyl)piperidin-4-yl)-[1,2,4]triazolo[1,5-b]pyridazine], under setting [1], the IC50 was above 10000 nM.
As for `CCc1cc2ncnn2cc1C1CCN(S(=O)(=O)c2cnc(C)n2C)CC1` [Compound 300, 6-(1-((1,2-dimethyl-1H-imidazol-5-yl)sulfonyl)piperidin-4-yl)-7-ethyl-[1,2,4]triazolo[1,5-a]pyridine], under setting [1], the half-maximal inhibitory concentration (IC50) amounted to 227 nM.
Regarding `Cc1cc2ncnn2cc1C1CCN(S(=O)(=O)c2cnn(C)c2Cl)C(C)C1` (centres unmarked) [Compound 361, 6-(1-((5-chloro-1-methyl-1H-pyrazol-4-yl)sulfonyl)-2-methylpiperidin-4-yl)-7-methyl-[1,2,4]triazolo[1,5-a]pyridine], the IC50 under setting [1] turned out to be 1470 nM.
For `Cc1cc2ncnn2nc1C1CCN(S(=O)(=O)c2cnn3ccccc23)CC1` [Compound 546, 7-methyl-6-(1-(pyrazolo[1,5-a]pyridin-3-ylsulfonyl)piperidin-4-yl)-[1,2,4]triazolo[1,5-b]pyridazine], under “vs EC80 acetylcholine”, the IC50 is 534 nM.
Regarding `O=S(=O)(c1ccc2c(c1)CCO2)N1CCC(c2cn3ccnc3cn2)CC1` [Compound 27, 6-(1-((2,3-dihydrobenzofuran-5-yl)sulfonyl)piperidin-4-yl)imidazo[1,2-a]pyrazine], the concentration for half-maximal inhibition (IC50) under setting [1] was above 10000 nM.
As to `COc1nn(C)c(I)c1S(=O)(=O)N1CCC(c2cn3ncnc3cc2Cl)CC1` (single isomer, unassigned) [Compound 626, 7-chloro-6-(1-((5-iodo-3-methoxy-1-methyl-1H-pyrazol-4-yl)sulfonyl)piperidin-4-yl)-[1,2,4]triazolo[1,5-a]pyridine], for the setting “vs EC80 acetylcholine”, the IC50 was found to be 37 nM.
With `[2H]C([2H])([2H])n1nc(Cl)c(S(=O)(=O)N2CCC(c3cn4ncnc4cc3C)CC2)c1C` [Compound 260, 6-(1(3-chloro-5-methyl-1-(methyl-d3-1H-pyrazol-4-yl)sulfonyl)piperidin-4-yl)-7-methyl-[1,2,4]triazolo[1,5-a]pyridine], the IC50 under setting [1] is 29 nM.
Consider `Cc1cc2ncnn2cc1C1CCN(S(=O)(=O)c2cnc(Cl)s2)CC1` [Compound 523, 2-chloro-5-((4-(7-methyl-[1,2,4]triazolo[1,5-a]pyridin-6-yl)piperidin-1-yl)sulfonyl)thiazole], for which, under “vs EC80 acetylcholine”, the IC50 is 291 nM.
Take `Cc1nc2cc(C)c(C3CCN(S(=O)(=O)c4cc5c(cc4C)OCC5C)CC3)cn2n1` (centres unmarked) [Compound 87]: under setting [1], the IC50 was 1300 nM.
Turning to `Cc1cc2ncnn2cc1C1(F)CCN(S(=O)(=O)c2cnn(C)c2C(F)(F)F)CC1` [Compound 423, 6-(4-fluoro-1-((1-methyl-5-(trifluoromethyl)-1H-pyrazol-4-yl)sulfonyl)piperidin-4-yl)-7-methyl-[1,2,4]triazolo[1,5-a]pyridine], under “vs EC80 acetylcholine”, the IC50 worked out at 912 nM.
Regarding `Cc1cc(N(C)C)ncc1C1CCN(S(=O)(=O)c2cnc3sccn23)CC1` [Compound 566, 5-(1-(imidazo[2,1-b]thiazol-5-ylsulfonyl)piperidin-4-yl)-N,N,4-trimethylpyridin-2-amine], the IC50 (vs EC80 acetylcholine) stood at 16 nM.
For the molecule `Cc1cc2ncccc2cc1C1CCN(S(=O)(=O)c2cnn3c2CCC3)CC1` [Compound 444, 6-(1-((5,6-dihydro-pyrrolo[1,2-b]pyrazol-3-yl)sulfonyl)piperidin-4-yl)-7-methylquinoline], under “vs EC80 acetylcholine”, the IC50 stood at 15 nM.
In the case of `O=S(=O)(c1ccc2c(c1)CCO2)N1CC=C(c2cc3c(cc2Cl)OCO3)CC1` [Compound 352, 4-(6-chlorobenzo[d][1,3]dioxol-5-yl)-1-((2,3-dihydrobenzofuran-5-yl)sulfonyl)-1,2,3,6-tetrahydropyridine], the IC50 under setting [1] was above 10000 nM.
As to `Cc1c(S(=O)(=O)N2CC=C(c3cn4ncnc4cc3C3CC3)CC2)cnn1C` [Compound 148, 7-cyclopropyl-6-(1-((1,5-dimethyl-1H-pyrazol-4-yl)sulfonyl)-1,2,3,6-tetrahydropyridin-4-yl)-[1,2,4]triazolo[1,5-a]pyridine], the IC50 under setting [1] was found to be 786 nM.
Consider `O=S(=O)(c1cnn2c1CCC2)N1CCC(c2cn3ncnc3cc2Cl)CC1` [Compound 293, 7-chloro-6-(1-((5,6-dihydro-4H-pyrrolo[1,2-b]pyrazol-3-yl)sulfonyl)piperidin-4-yl)-[1,2,4]triazolo[1,5-a]pyridine], for which the IC50 under setting [1] was determined as 12 nM.
In the case of `[2H]C1([2H])CC(c2cn3ncnc3cc2C)CC([2H])([2H])N1S(=O)(=O)c1cnn(C)c1C#N` [Compound 547, 1-methyl-4-((4-(7-methyl-[1,2,4]triazolo[1,5-a]pyridin-6-yl)piperidin-1-yl-2,2,6,6-d4)sulfonyl)-1H-pyrazole-5-carbonitrile], under “vs EC80 acetylcholine”, the IC50 was found to be 10 nM.
Regarding `O=S(=O)(c1ccc2c(c1)CCO2)N1CCC(c2nnc(NCc3ccccc3)cc2C(F)(F)F)CC1` [Compound 44], the IC50 under setting [1] stood at 5600 nM.
On the same count and under the same terms, in the case of `Cc1cc2nccn2cc1C1CCN(S(=O)(=O)c2ccc3ncsc3c2)CC1` [Compound 68, 6-((4-(7-methylimidazo[1,2-a]pyridin-6-yl)piperidin-1-yl)sulfonyl)benzo[d]thiazole] it was 6000 nM.
As for `Cc1cc2ncnn2cc1C1(F)CCN(S(=O)(=O)c2cnn3c2CCC3)CC1` [Compound 420, 6-(1-((5,6-dihydro-4H-pyrrolo[1,2-b]pyrazol-3-yl)sulfonyl)-4-fluoropiperidin-4-yl)-7-methyl-[1,2,4]triazolo[1,5-a]pyridine], under “vs EC80 acetylcholine”, the IC50 worked out at 39 nM.
As for `Cc1ncc(S(=O)(=O)N2CCC(c3ccc4ncnn4c3)CC2)n1C` [Compound 286, 6-(1-((1,2-dimethyl-1H-imidazol-5-yl)sulfonyl)piperidin-4-yl)-[1,2,4]triazolo[1,5-a]pyridine], under setting [1], the IC50 was found to be 2000 nM.
For `Cc1cc2ncnn2cc1C1CCN(S(=O)(=O)c2cnn(C)c2CC#N)CC1` [Compound 401, 2-(1-methyl-4-((4-(7-methyl-[1,2,4]triazolo[1,5-a]pyridin-6-yl)piperidin-1-yl)sulfonyl)-1H-pyrazol-5-yl)acetonitrile], the IC50 (vs EC80 acetylcholine) is 72 nM.
Take `Cc1nn(C)c(Cl)c1S(=O)(=O)N1CCC(c2cn3ncnc3cc2F)CC1` [Compound 228, 6-(1-((5-chloro-1,3-dimethyl-1H-pyrazol-4-yl)sulfonyl)piperidin-4-yl)-7-fluoro-[1,2,4]triazolo[1,5-a]pyridine]: the IC50 under setting [1] was found to be 125 nM.
In the case of `Cc1nc2cc(C)c(C3CCN(S(=O)(=O)c4cnn(C)c4C)CC3)cn2n1` [Compound 200, 6-(1-((1,5-dimethyl-1H-pyrazol-4-yl)sulfonyl)piperidin-4-yl)-2,7-dimethyl-[1,2,4]triazolo[1,5-a]pyridine], the IC50 under setting [1] was determined as 899 nM.
In the case of `Cc1cc(C(F)(F)F)ncc1C1CCN(S(=O)(=O)c2cnn3c2OCCC3)CC1` [Compound 398, 3-((4-(4-methyl-6-(trifluoromethyl)pyridin-3-yl)piperidin-1-yl)sulfonyl)-6,7-dihydro-5H-pyrazolo[5,1-b][1,3]oxazine], for the setting “vs EC80 acetylcholine”, the IC50 turned out to be 6310 nM.
`O=S(=O)(c1ccc2c(c1)CCO2)N1CC=C(c2cn3ncnc3cc2Cl)CC1` [Compound 139, 7-chloro-6-(1-((2,3-dihydrobenzofuran-5-yl)sulfonyl)-1,2,3,6-tetrahydropyridin-4-yl)-[1,2,4]triazolo[1,5-a]pyridine]: the IC50 under setting [1] is 149 nM.
As for `O=S(=O)(c1ccc2c(c1)CCO2)N1CCC(c2cn3ccccc3n2)CC1` [Compound 10, 2-(1-((2,3-dihydrobenzofuran-5-yl)sulfonyl)piperidin-4-yl)imidazo[1,2-a]pyridine], the IC50 under setting [1] was determined as 2300 nM.
`Cn1ncc(S(=O)(=O)N2CCC(c3cn4ncnc4cc3C(F)F)CC2)c1CC#N` [Compound 456, 2-(4-((4-(7-(difluoromethyl)-[1,2,4]triazolo[1,5-a]pyridin-6-yl)piperidin-1-yl)sulfonyl)-1-methyl-1H-pyrazol-5-yl)acetonitrile]: under “vs EC80 acetylcholine”, the IC50 came to 414 nM.
Consider `[2H]C([2H])([2H])n1nc(Cl)c(S(=O)(=O)N2CCC(c3cn4ncnc4cc3F)CC2)c1C` [Compound 257, 6-(1-((3-chloro-5-methyl-1-(methyl-d3)-1H-pyrazol-4-yl)sulfonyl)piperidin-4-yl)-7-fluoro-[1,2,4]triazolo[1,5-a]pyridine], for which the IC50 under setting [1] was determined as 89 nM.
Regarding `Cc1cc2ncccc2cc1C1CCN(S(=O)(=O)c2cnn3cccnc23)CC1` [Compound 448, 7-methyl-6-(1-(pyrazolo[1,5-a]pyrimidin-3-ylsulfonyl)piperidin-4-yl)quinoline], the IC50 (vs EC80 acetylcholine) amounted to 1990 nM.
Consider `[2H]C1([2H])CC(c2cn3ncnc3c(F)c2C)CC([2H])([2H])N1S(=O)(=O)c1cnc(C)o1` [Compound 569, 5-((4-(8-fluoro-7-methyl-[1,2,4]triazolo[1,5-a]pyridin-6-yl)piperidin-1-yl-2,2,6,6-d4)sulfonyl)-2-methyloxazole], for which the IC50 (vs EC80 acetylcholine) was 174 nM.

For the origin of these results see patent publication US20230183237A1, “COMPETITIVE AND NONCOMPETITIVE INHIBITORS OF THE MUSCARINIC ACETYLCHOLINE RECEPTOR M5” (Vanderbilt University, priority 2020, published 2023).
